What was measured:
MFE-319 xenograft model = test: MFE-319 xenograft tumor growth inhibition; format: in vivo, mouse; details: Endometrial MFE-319; IP 15 mg/kg BIW; non-amplified; P ns
Procedure: (§1) Percentage tumor growth inhibition by FGFR1-ECD.339-Fc was determined by area-under-the-curve (AUC) analysis of xenograft growth curves treated with FGFR1-ECD.339-Fc compared to albumin control. […] The difference in FGFR1-ECD.339-Fc-mediated xenograft inhibition between FGFR1 gene amplified and non-amplified lung cancer xenograft models was statistically significant (P=0.0333).
(§2) Also shown in Table 5 are the dosing schedule for FGFR1-ECD.339-Fc in a mouse xenograft model, the percent tumor growth inhibition (TGI (%)) and the statistical significance of the tumor growth inhibition (P Value), as well as whether the FGFR1 gene is amplified in the cell line.
(§3) An exemplary xenograft experiment is as follows. For Caki-1 and MSTO-211H, five million cells were implanted subcutaneously over the right flank of SCID mice (N=10 per group). […] Representative tumor growth curves are shown for a renal cancer, Caki-1, (A), and mesothelioma, MSTO-211H, (B) xenograft cancer model. […] In the MSTO-211H mesothelioma model, FGFR1-ECD.339-Fc administration reduced tumor growth (FIG. 16b) by 64% (P<0.0001).

mitogenic FGFs = test: Binding to mitogenic FGFs relative to FGF-23
Procedure: FGFR1-ECD.339-Fc binds to the mitogenic FGFs with 10 to 100-fold higher affinity than to FGF-23. […] The potential biological impact of this relatively weak FGFR1-ECD.339-Fc/FGF-23 binding was investigated in rats following four weekly doses of FGFR1-ECD.339-Fc at a dose range of 10-200 mg/kg/qwk.

U-251 xenograft model = test: U-251 xenograft tumor growth inhibition; format: in vivo, mouse; details: Glioblastoma U-251; IP 15 mg/kg BIW; non-amplified; P = 0.0078
Procedure: as §1, §2, §3

[1] = test system: NCI-H2126 xenograft model; test: NCI-H2126 xenograft tumor growth inhibition; format: in vivo, mouse; details: Lung NCI-H2126; IP 15 mg/kg BIW; non-amplified; P ns
Text: The impact of FGFR1-ECD.339-Fc on tumor growth was compared between FGFR1 gene amplified and non-amplified lung cancer xenograft models. Lung cell lines without FGFR1-amplification examined in this experiment were as follows: A549, NCI-H460, NCI-H226, NCI-H2126, NCI-H441, NCI-H358, NCI-H522 and Colo699. Non-amplified cell lines were purchased from ATTC (Manassas, Va.) and cultured according to supplier instructions. Lung cancer xenograft models using non-FGFR1 gene amplified cell lines were carried out substantially as described in Example 2.
as §1

DMS53 cells = test: CellTiter-Glo cell number, DMS53; format: cell-based, human; details: 15 μg/ml, 4 days, 10%, 1% or 0.1% FBS
Text: (§4) A panel of lung cancer cell lines displaying potential amplification of the FGFR1 gene was identified using CONAN (http://www.sanger.ac.uk/cgi-bin/genetics/CGP/conan/search.cgi) and Tumorscape (http://www.broadinstitute.org/tumorscape/pages/portalHomejsf). CONAN and Tumorscape represent public data mining tools to extract gene copy number information for predefined or user defined loci across the SNP6.0 dataset of cancer. Lung cancer cell lines DMS53, DMS114, NCI-H1581 and NCI-H520 were identified as having potential amplification of the FGFR1 gene (>4 copies/cell) and were selected for further analysis. Human small cell lung cancer (SCLC) cell lines DMS53 and DMS114 were purchased from ATCC (Manassas, Va.; Cat. No. CRL-2062; Cat. No. CRL-2066, respectfully). The cells were cultured in Waymouth's MB 752/1 medium+10% FBS+2 mM L-glutamine at 37° C. in a humidified atmosphere with 5% CO2. […]
(§5) To determine cell number the CellTiter-Glo® Luminescent Cell Viability Assay (Promega, Madison, Wis.) was employed. CellTiter-Glo® is a homogeneous method of determining the number of viable cells in culture based on quantitation of the ATP present, an indicator of metabolically active cells. […] Luminescence was then determined on an EnVision™ Multilabel Plate Reader (PerkinElmer, Boston, Mass.) with a 0.2 second integration time. Results were expressed as relative light units (RLU)/well.

MFE-280 xenograft model = test: MFE-280 xenograft tumor growth inhibition; format: in vivo, mouse; details: Endometrial MFE-280; IP 15 mg/kg BIW; non-amplified; P < 0.001
Procedure: as §1, §2, §3

Y79 xenograft model = test: Y79 xenograft tumor growth inhibition; format: in vivo, mouse; details: Retinoblastoma Y79; IP 10 mg/kg BIW; non-amplified; P ns
Procedure: as §1, §2, §3

DMS114 cells = test: CellTiter-Glo cell number, DMS114; format: cell-based, human; details: 15 μg/ml, 4 days, 10%, 1% or 0.1% FBS
Text: as §4, §5

Caki-1 xenograft model = test: Caki-1 renal cell carcinoma xenograft tumor growth inhibition; format: in vivo, mouse; details: Renal Caki-1, IV 10 mg/kg BIW, 6 weeks, non-amplified, P < 0.001
Text: as §3

## FGFR1-ECD.339-Fc: human FGFR1 extracellular domain ending at amino acid 339 fused to an Fc; SEQ ID NO: 6 (mature form), SEQ ID NO: 5 with signal peptide
MFE-319 xenograft model
  TGI (%): 0%
Mitogenic FGFs
  higher affinity for mitogenic FGFs than for FGF-23: 10 to 100 fold
U-251 xenograft model
  TGI (%): 48%
[1]
  TGI (%): 0%
DMS53 cells
  cell number (CellTiter-Glo): reduced
MFE-280 xenograft model
  TGI (%): 96%
Y79 xenograft model
  TGI (%): 0%
DMS114 cells
  cell number (CellTiter-Glo): reduced
Caki-1 xenograft model
  TGI (%): 81%
